Results taken from US11535615B2, “Heterocyclic compounds as immunomodulators” (Incyte Corporation, priority 2015, dated 2022).

Target: PD-1/PD-L1 protein/protein interaction (Homo sapiens (Human), UniProt Q9NZQ7)
Assay: PD-1/PD-L1 Homogeneous Time-Resolved Fluorescence (HTRF) Binding Assay
Conditions: recombinant human PD-L1 (19-238) His-tag and human PD-1 (25-167) Fc tag; PBS pH 7.4
Experimental: Example A. PD-1/PD-L1 Homogeneous Time-Resolved Fluorescence (HTRF) Binding Assay
The assays were conducted in a standard black 384-well polystyrene plate with a final volume of 20 μL. Inhibitors were first serially diluted in DMSO and then added to the plate wells before the addition of other reaction components. The final concentration of DMSO in the assay was 1%. The assays were carried out at […] in the PBS buffer (pH 7.4) with 0.05% Tween-20 and 0.1% BSA. Recombinant human PD-L1 protein (19-238) with a His-tag at the C-terminus was purchased from AcroBiosystems (PD1-H5229). Recombinant human PD-1 protein (25-167) with Fc tag at the C-terminus was also purchased from AcroBiosystems (PD1-H5257). PD-L1 and PD-1 proteins were diluted in the assay buffer and 10 μL was added to the plate well. Plates were centrifuged and proteins were preincubated with inhibitors for 40 minutes. The incubation was followed by the addition of 10 μL of HTRF detection buffer supplemented with Europium cryptate-labeled anti-human IgG (PerkinElmer-AD0212) specific for Fc and anti-His antibody conjugated to SureLight®-Allophycocyanin (APC, PerkinElmer-AD0059H). After centrifugation, the plate was incubated at 25° C. for 60 min. before reading on a PHERAstar FS plate reader (665 nm/620 nm ratio). Final concentrations in the assay were […] PD1, 10 nM PD-L1, 1 nM europium anti-human IgG and 20 nM anti-His-Allophycocyanin. IC50 determination was performed by fitting the curve of percent control activity versus the log of the inhibitor concentration using the GraphPad Prism 5.0 software.

Chain of PD-1/PD-L1 protein/protein interaction (Q9NZQ7 19-238): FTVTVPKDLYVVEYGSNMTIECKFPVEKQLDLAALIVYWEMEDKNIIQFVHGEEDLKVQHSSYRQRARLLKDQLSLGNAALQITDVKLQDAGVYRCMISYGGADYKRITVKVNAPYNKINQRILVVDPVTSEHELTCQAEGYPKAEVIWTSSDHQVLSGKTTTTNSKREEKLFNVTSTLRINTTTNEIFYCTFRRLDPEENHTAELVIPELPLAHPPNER

Row | Compound | IC50 [nM]
1 | Cc1c(Nc2nccc3cc(CNCCO)cnc23)cccc1-c1ccccc1 [Example 2, 2-[({8-[(2-methylbiphenyl-3-yl)amino]-1,7-naphthyridin-3-yl}methyl)amino]ethanol] | ≤ 10
2 | Cc1c(Nc2nccc3c(Cl)c(CNCCO)cnc23)cccc1-c1ccccc1 [Example 9, 2-[({4-chloro-8-[(2-methylbiphenyl-3-yl)amino]-1,7-naphthyridin-3-yl}methyl)amino]ethanol] | 10 to 100
3 | Cc1c(Nc2nccc3c(Cl)c(CN4CCCCC4C(=O)O)cnc23)cccc1-c1ccccc1 (stereo not drawn) [Example 11, 1-({4-chloro-8-[(2-methylbiphenyl-3-yl)amino]-1,7-naphthyridin-3-yl}methyl)piperidine-2-carboxylic Acid] | 10 to 100
4 | Cc1c(Nc2nccc3cc(CN4CCCCC4C(=O)O)cnc23)cccc1-c1ccccc1 (stereo not drawn) [Example 3, 1-({8-[(2-methylbiphenyl-3-yl)amino]-1,7-naphthyridin-3-yl}methyl)piperidine-2-carboxylic Acid] | 10 to 100
5 | Cc1c(Nc2ncnc3cc(CN4CCCCC4C(=O)O)cnc23)cccc1-c1ccccc1 (stereo not drawn) [Example 4, 1-({4-[(2-methylbiphenyl-3-yl)amino]pyrido[3,2-d]pyrimidin-7-yl}methyl)piperidine-2-carboxylic Acid] | 10 to 100
6 | Cc1c(Nc2cccc3c(CNCCO)ccnc23)cccc1-c1ccccc1 [Example 7, 2-[({8-[(2-methylbiphenyl-3-yl)amino]quinolin-4-yl}methyl)amino]ethanol] | 10 to 100
7 | Cc1c(Nc2nccc3c(CNCCO)ccnc23)cccc1-c1ccc2c(c1)OCCO2 [Example 12, 2-{[(8-{[3-(2,3-dihydro-1,4-benzodioxin-6-yl)-2-methylphenyl]amino}-1,7-naphthyridin-4-yl)methyl]amino}ethanol] | ≤ 10
8 | Cc1c(Nc2nccc3nc(CN4CCCC[C@H]4C(=O)O)cnc23)cccc1-c1ccccc1 [Example 15, (2S)-1-({5-[(2-methylbiphenyl-3-yl)amino]pyrido[3,4-b]pyrazin-2-yl}methyl)piperidine-2-carboxylic Acid] | 10 to 100
9 | Cc1c(Nc2nccc3cc(CNCCO)cnc23)cccc1C1=CCCCC1 [Example 18, 2-[({8-[(3-cyclohex-1-en-1-yl-2-methylphenyl)amino]-1,7-naphthyridin-3-yl}methyl)amino]ethanol] | ≤ 10
10 | Cc1c(Nc2cccc3cc(CNCCO)cnc23)cccc1-c1ccccc1 [Example 1, 2-[({8-[(2-methylbiphenyl-3-yl)amino]quinolin-3-yl}methyl)amino]ethanol] | 10 to 100

Now from value to compound:

Row | IC50 [nM] | Compound
11 | ≤ 10 | N#Cc1c(Nc2nccc3cc(CNCCO)cnc23)cccc1C1=CCCCC1 [Example 20, 2-cyclohex-1-en-1-yl-6-[(3-{[(2-hydroxyethyl)amino]methyl}-1,7-naphthyridin-8-yl)amino]benzonitrile]
12 | ≤ 10 | N#Cc1c(Nc2nccc3cc(CNCCO)cnc23)cccc1-c1ccccc1 [Example 19, 3-[(3-{[(2-hydroxyethyl)amino]methyl}-1,7-naphthyridin-8-yl)amino]biphenyl-2-carbonitrile]
13 | ≤ 10 | Cc1c(Nc2nccc3nc(CNCCO)cnc23)cccc1-c1ccccc1 [Example 14, 2-[({5-[(2-methylbiphenyl-3-yl)amino]pyrido[3,4-b]pyrazin-2-yl}methyl)amino]ethanol]
14 | 10 to 100 | N#Cc1c(Nc2nccc3cc(CNCCO)cnc23)cccc1C1CCCCC1 [Example 21, 2-cyclohexyl-6-[(3-{[(2-hydroxyethyl)amino]methyl}-1,7-naphthyridin-8-yl)amino]benzonitrile]
15 | ≤ 10 | N#Cc1c(Nc2nccc3cc(CNCCO)cnc23)cccc1-c1ccc2c(c1)OCCO2 [Example 16, 2-(2,3-dihydro-1,4-benzodioxin-6-yl)-6-[(3-{[(2-hydroxyethyl)amino]methyl}-1,7-naphthyridin-8-yl)amino]benzonitrile]
16 | ≤ 10 | COc1c(CNCCO)cnc2c(Nc3cccc(-c4ccccc4)c3C)nccc12 [Example 10, 2-[({4-methoxy-8-[(2-methylbiphenyl-3-yl)amino]-1,7-naphthyridin-3-yl}methyl)amino]ethanol]
17 | 10 to 100 | Cc1c(Nc2nccc3c(CN4CCCCC4C(=O)O)ccnc23)cccc1-c1ccc2c(c1)OCCO2 (stereo not drawn) [Example 13, 1-[(8-{[3-(2,3-dihydro-1,4-benzodioxin-6-yl)-2-methylphenyl]amino}-1,7-naphthyridin-4-yl)methyl]piperidine-2-carboxylic Acid]
18 | 10 to 100 | Cc1c(Nc2nccc3c(CNCCO)ccnc23)cccc1-c1ccccc1 [Example 6, 2-[({8-[(2-methylbiphenyl-3-yl)amino]-1,7-naphthyridin-4-yl}methyl)amino]ethanol]
19 | ≤ 10 | Cc1c(Nc2nccc3c(CN4CCCCC4C(=O)O)ccnc23)cccc1-c1ccccc1 (stereo not drawn) [Example 5, 1-({8-[(2-methylbiphenyl-3-yl)amino]-1,7-naphthyridin-4-yl}methyl)piperidine-2-carboxylic Acid]
20 | ≤ 10 | Cc1c(Nc2nccc3cc(CNCCO)cnc23)cccc1-c1ccc2c(c1)OCCO2 [Example 17, 2-{[(8-{[3-(2,3-dihydro-1,4-benzodioxin-6-yl)-2-methylphenyl]amino}-1,7-naphthyridin-3-yl)methyl]amino}ethanol]
21 | 10 to 100 | Cc1c(Nc2cccc3c(CN4CCCCC4C(=O)O)ccnc23)cccc1-c1ccccc1 (stereo not drawn) [Example 8, 1-({8-[(2-methylbiphenyl-3-yl)amino]quinolin-4-yl}methyl)piperidine-2-carboxylic Acid]
